From US20230145835A1, “Modulators of Alpha-4-beta-7 Integrin and MAdCAM” (48HD Biopharma Inc., priority 2021, published 2023) come the findings set out here.

Numbered stars: 1 amine (or outer) side, 2 acyl side, 3 side chain; on linkers, the order of the positions; unused ones are H or OH. Bridge positions count the residues as written; N and C are the ends. Square brackets hold non-standard residues; d marks the D form. Peptide text beside a SMILES is read from it. X3 = O=C(/C=N/OCCCCCCOc1cc(C[*:2])cc(C[*:3])c1)[*:1]; X1 = O=C(C=NOCCCCCCOc1cc(C[*:2])cc(C[*:3])c1)[*:1]; X4 = N=C(N)NCCC[C@@H](CN[*:1])C(=O)[*:2]; aIle = CC[C@@H](C)[C@H](N)C(=O)O; tBuAla = CC(C)(C)C[C@H](N)C(=O)O; Met(O) = CS(=O)CC[C@H](N)C(=O)O

One test concerns the target T1, rh-integrin α4β7/LPAM-1 (Homo sapiens, UniProt P13612+P26010).
T1 sequence (P13612 34-977 limits assumed): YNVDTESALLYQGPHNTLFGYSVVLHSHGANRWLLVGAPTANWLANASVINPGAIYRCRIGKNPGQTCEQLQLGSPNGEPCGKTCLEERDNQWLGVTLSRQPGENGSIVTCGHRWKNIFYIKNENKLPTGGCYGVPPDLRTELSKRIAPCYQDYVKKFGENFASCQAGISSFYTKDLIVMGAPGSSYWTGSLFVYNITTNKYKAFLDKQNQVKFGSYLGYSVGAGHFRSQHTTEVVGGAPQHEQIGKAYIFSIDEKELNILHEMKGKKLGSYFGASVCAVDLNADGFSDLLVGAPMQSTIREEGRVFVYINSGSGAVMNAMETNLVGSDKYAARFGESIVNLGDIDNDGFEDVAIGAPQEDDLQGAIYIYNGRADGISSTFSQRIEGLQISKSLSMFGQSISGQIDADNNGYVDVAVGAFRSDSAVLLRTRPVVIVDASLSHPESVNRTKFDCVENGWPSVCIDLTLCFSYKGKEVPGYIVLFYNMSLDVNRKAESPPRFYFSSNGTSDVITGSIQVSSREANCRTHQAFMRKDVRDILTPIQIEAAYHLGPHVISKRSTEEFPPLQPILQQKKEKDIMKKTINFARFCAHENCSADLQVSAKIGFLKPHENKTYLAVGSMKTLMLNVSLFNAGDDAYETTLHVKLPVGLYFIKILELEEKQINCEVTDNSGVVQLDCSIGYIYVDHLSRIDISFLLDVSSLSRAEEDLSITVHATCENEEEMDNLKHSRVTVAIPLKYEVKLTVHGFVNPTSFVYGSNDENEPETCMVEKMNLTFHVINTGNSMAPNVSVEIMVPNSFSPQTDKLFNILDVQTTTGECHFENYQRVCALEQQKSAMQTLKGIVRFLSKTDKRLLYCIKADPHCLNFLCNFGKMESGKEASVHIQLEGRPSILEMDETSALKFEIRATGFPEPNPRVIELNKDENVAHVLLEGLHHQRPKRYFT
T1 sequence (P26010 20-723 limits assumed): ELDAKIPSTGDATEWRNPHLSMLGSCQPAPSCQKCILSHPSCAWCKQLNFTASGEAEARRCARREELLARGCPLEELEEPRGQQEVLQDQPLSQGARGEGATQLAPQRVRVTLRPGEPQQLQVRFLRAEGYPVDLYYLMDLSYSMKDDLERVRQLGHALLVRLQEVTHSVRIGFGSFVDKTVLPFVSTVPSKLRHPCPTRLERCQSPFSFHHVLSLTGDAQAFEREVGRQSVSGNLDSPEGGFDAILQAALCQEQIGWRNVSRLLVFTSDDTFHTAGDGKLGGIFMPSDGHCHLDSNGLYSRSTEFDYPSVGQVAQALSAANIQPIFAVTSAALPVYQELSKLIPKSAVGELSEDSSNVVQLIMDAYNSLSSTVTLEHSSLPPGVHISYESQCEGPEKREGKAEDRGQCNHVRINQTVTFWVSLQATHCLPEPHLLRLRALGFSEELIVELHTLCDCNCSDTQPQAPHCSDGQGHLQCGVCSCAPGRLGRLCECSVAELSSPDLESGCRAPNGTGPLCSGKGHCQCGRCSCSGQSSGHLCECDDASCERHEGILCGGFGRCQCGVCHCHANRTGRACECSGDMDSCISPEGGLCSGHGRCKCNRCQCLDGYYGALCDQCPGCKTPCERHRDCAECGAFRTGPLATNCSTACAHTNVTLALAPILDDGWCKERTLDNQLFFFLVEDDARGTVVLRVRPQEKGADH
As to the kind of experiment: α4β7-MadCAM Competition ELISA (Example 4). The format is binding. The conditions noted are these: Table 3 Representative compounds; inhibition of MAdCAM binding to coated α4β7; read-out: IC50. On the procedure: After washing with wash buffer, 200 μL assay buffer was added to each well and incubated for one hour at 28° C. After another wash with wash buffer, 100 μL of a MAdCAM and peptide mixture in assay buffer was added to each well and incubated for one hour at 28° C., followed by washing with wash buffer.
`N=C(N)NCCC[C@H]1CNC(=O)CNC(=O)[C@H](Cc2ccc(O)cc2)NC(=O)[C@H](Cc2c[nH]c3ccccc23)NC(=O)[C@H](Cc2c[nH]cn2)NC(=O)[C@@H]2CSCc3cc(cc(c3)OCCCCCCO/N=C/C(=O)N[C@@H](CCC(N)=O)C(=O)N2)CSC[C@@H](C(N)=O)NC(=O)[C@@H](CO)NC1=O` [compound 111, TSL6- SQCHWYGRSC] (QCHWYG[X4][dS]C-NH2; linker N-2-9 via X3): the IC50 – broadly, the concentration needed to halve the response being measured – is greater than 500 µM.
Regarding `CC(C)[C@@H]1NC(=O)[C@H](CC(=O)O)NC(=O)[C@H](CC(C)(C)C)NC(=O)[C@@H]2CCCN2C(=O)[C@@H]2CSCc3cc(cc(c3)OCCCCCCO/N=C/C(=O)N[C@@H](CCCNC(=N)N)C(=O)N2)CSC[C@@H](C(N)=O)NC(=O)[C@H](CCC(=O)O)NC(=O)CNC(=O)[C@H](Cc2c[nH]c3ccccc23)NC1=O` [compound 58, TSL6- SRCP{tBuAla} DVWGEC] (RCP[tBuAla]DVWGEC-NH2; linker N-2-10 via X3), the IC50 worked out at 4.01 µM.
`CC[C@@H](C)[C@@H]1NC(=O)/C=N/OCCCCCCOc2cc3cc(c2)CSC[C@H](NC1=O)C(=O)N[C@@H](CCCNC(=N)N)C(=O)N[C@@H]([C@@H](C)O)C(=O)N[C@@H](CC(=O)O)C(=O)N[C@@H](C(C)C)C(=O)N1CCC[C@H]1C(=O)N[C@@H]([C@@H](C)CC)C(=O)N[C@@H](CC(=O)O)C(=O)N[C@H](C(N)=O)CSC3` [compound 66, TSL6- SICRTDVPIDC] ([aIle]CRTDVPIDC-NH2; linker N-2-10 via X3): the IC50 stood at 14.4 µM.
The same measure, in the same setting: to `CSCC[C@@H]1NC(=O)/C=N/OCCCCCCOc2cc3cc(c2)CSC[C@H](NC1=O)C(=O)N1CCC[C@H]1C(=O)N[C@@H](CC(C)C)C(=O)N[C@@H](Cc1ccc(O)cc1)C(=O)N[C@@H](CCCCN)C(=O)N[C@@H](C(C)C)C(=O)N[C@@H](Cc1cnc[nH]1)C(=O)N[C@H](C(N)=O)CSC3` [compound 98, TSL6- SMCPLYKVHC] (MCPLYKVHC-NH2; linker N-2-9 via X3) belongs 151 µM; to `CC(C)C[C@@H]1NC(=O)[C@H]([C@@H](C)O)NC(=O)[C@H](CC(=O)O)NC(=O)[C@H](CO)NC(=O)[C@H](CCCNC(=N)N)NC(=O)[C@@H](N)CSSC[C@@H](C(N)=O)NC1=O` [compound 8] (H-CRSDTLC-NH2; disulfide 1-7), 0.186 µM.
For the molecule `CC[C@H](C)[C@@H]1NC(=O)[C@H](CC(=O)O)NC(=O)[C@H](CC(C)C)NC(=O)[C@@H]2CSCc3cc(cc(c3)OCCCCCCO/N=C/C(=O)N[C@@H](CCCNC(=N)N)C(=O)N2)CSC[C@@H](C(N)=O)NC(=O)[C@H](CC(=O)O)NC(=O)[C@H](Cc2ccc(O)cc2)NC(=O)[C@H]([C@@H](C)O)NC1=O` [compound 92, TSL6- SRCLDIMYDC] (RCLDITYDC-NH2; linker N-2-9 via X3), the IC50 came out at 100 µM.
Same read-out and setting: the same measure for `CC(C)C[C@@H]1NC(=O)[C@@H]2CCCN2C(=O)[C@@H]2CSCc3cc(cc(c3)OCCCCCCO/N=C/C(=O)N[C@@H](CCCCN)C(=O)N2)CSC[C@@H](C(N)=O)NC(=O)[C@H](CCC(=O)O)NC(=O)[C@H](CCC(N)=O)NC(=O)[C@@H]2CCCN2C(=O)[C@H]([C@@H](C)O)NC(=O)[C@H](CC(=O)O)NC1=O` [compound 26, TSL6- SKCPLDTPQEC] (KCPLDTPQEC-NH2; linker N-2-10 via X3): 0.602 µM.
Consider `CC[C@H](C)[C@@H]1NC(=O)[C@H](Cc2ccc(O)cc2)NC(=O)[C@H](CC(C)C)NC(=O)[C@@H]2CCCN2C(=O)[C@@H]2CSCc3cc(cc(c3)OCCCCCCO/N=C/C(=O)N[C@@H](CCSC)C(=O)N2)CSC[C@@H](C(N)=O)NC(=O)[C@H](Cc2cnc[nH]2)NC(=O)[C@H](C(C)C)NC1=O` [compound 72, TSL6- SMCPLYIVHC] (MCPLYIVHC-NH2; linker N-2-9 via X3), for which the IC50 came to 29.4 µM.
The same measure, in the same setting: the same measure for `CC[C@H](C)[C@@H]1NC(=O)[C@H](C)NC(=O)[C@H](CCSC)NC(=O)[C@@H]2CCCN2C(=O)[C@@H]2CSCc3cc(cc(c3)OCCCCCCO/N=C/C(=O)N[C@@H](CCC(N)=O)C(=O)N2)CSC[C@@H](C(N)=O)NC(=O)[C@H]([C@@H](C)O)NC(=O)[C@@H]2CCCN2C1=O` [compound 110, TSL6- SQCPMAIPTC] (QCPMAIPTC-NH2; linker N-2-9 via X3): greater than 500 µM; for `CC[C@H](C)[C@@H]1NC(=O)[C@H](CC(=O)O)NC(=O)[C@H](CCSC)NC(=O)[C@@H]2CCCN2C(=O)[C@@H]2CSCc3cc(cc(c3)OCCCCCCO/N=C/C(=O)N[C@@H](CCC(N)=O)C(=O)N2)CSC[C@@H](C(N)=O)NC(=O)[C@H](C)NC(=O)[C@@H]2CCCN2C1=O` [compound 46, TSL6- SQCPMDIPAC] (QCPMDIPAC-NH2; linker N-2-9 via X3): 1.64 µM; for `CC(C)C[C@@H]1NC(=O)[C@H](Cc2ccccc2)NC(=O)[C@@H]2CSCc3cc(cc(c3)OCCCCCCO/N=C/C(=O)N[C@@H]([C@@H](C)O)C(=O)N2)CSC[C@@H](C(N)=O)NC(=O)[C@H](CC(N)=O)NC(=O)[C@H](CCCCN)NC(=O)[C@H](C(C)C)NC(=O)[C@H](CC(=O)O)NC1=O` [compound 104, TSL6- STCFLDVKNC] (TCFLDVKNC-NH2; linker N-2-9 via X3): 311 µM.
As for `CSCC[C@@H]1NC(=O)[C@H]([C@@H](C)O)NC(=O)[C@H](C)NC(=O)CNC(=O)[C@@H]2CSCc3cc(cc(c3)OCCCCCCO/N=C/C(=O)N[C@@H](Cc3ccccc3)C(=O)N2)CSC[C@@H](C(N)=O)NC(=O)[C@H](CCCCN)NC(=O)[C@H](CCCCN)NC1=O` [compound 100, TSL6- SFCGATMKKC] (FCGATMKKC-NH2; linker N-2-9 via X3), the IC50 is 162 µM.
Same read-out and setting: the same measure for `CC(C)C[C@@H]1NC(=O)[C@@H]2CCCN2C(=O)[C@@H]2CSCc3cc(cc(c3)OCCCCCCO/N=C/C(=O)N[C@@H](CCCNC(=N)N)C(=O)N2)CSC[C@@H](C(N)=O)NC(=O)[C@H](CCC(=O)O)NC(=O)[C@H](Cc2ccc(O)cc2)NC(=O)[C@H](C)NC(=O)[C@H]([C@@H](C)O)NC(=O)[C@H](CC(=O)O)NC1=O` [compound 38, TSL6- SKCPLDTAYEC] (RCPLDTAYEC-NH2; linker N-2-10 via X3): 1.04 µM.
Still for that read-out and setting: the same measure for `CC[C@H](C)[C@@H]1NC(=O)[C@H](CC(=O)O)NC(=O)[C@H](C)NC(=O)[C@@H]2CCCN2C(=O)[C@@H]2CSCc3cc(cc(c3)OCCCCCCO/N=C/C(=O)N[C@@H](CCC(N)=O)C(=O)N2)CSC[C@@H](C(N)=O)NC(=O)[C@H]([C@@H](C)O)NC(=O)[C@@H]2CCCN2C1=O` [compound 78, TSL6- SQCPADIPTC] (QCPADIPTC-NH2; linker N-2-9 via X3): 43.7 µM; for `CC(C)C[C@@H]1NC(=O)[C@H](C)NC(=O)[C@@H]2CSCc3cc(cc(c3)OCCCCCCO/N=C/C(=O)N[C@@H](CCCCN)C(=O)N2)CSC[C@@H](C(N)=O)NC(=O)[C@H](CCC(=O)O)NC(=O)[C@H](Cc2ccc(O)cc2)NC(=O)[C@@H]2CCCN2C(=O)[C@H]([C@@H](C)O)NC(=O)[C@H](CC(=O)O)NC1=O` (stereo in doubt) [compound 53, TSL6- SKCALDTPYEC]: 2.7 µM.

Still in this test, the particulars now being: competition ELISA, 4 μg/mL α4β7 coated, MAdCAM and peptide mixture, 28° C.; read-out: IC50.
As to `CC[C@H](C)[C@@H]1NC(=O)[C@H](C)NC(=O)[C@H](CC[S+](C)[O-])NC(=O)[C@@H]2CCCN2C(=O)[C@@H]2CSCc3cc(cc(c3)OCCCCCCON=CC(=O)N[C@@H](CCC(N)=O)C(=O)N2)CSC[C@@H](C(=O)O)NC(=O)[C@H]([C@@H](C)O)NC(=O)[C@@H]2CCCN2C1=O` (stereo partly shown) [SEQ ID NO: 80] (QCP[Met(O)]AIPTC-OH; linker N-2-9 via X1), the IC50 is 152 µM.
